Measured values taken from article PMC7587962, “Evaluation of Cytotoxicity and α-Glucosidase Inhibitory Activity of Amide and Polyamino-Derivatives of Lupane Triterpenoids” (Molecules, 2020).

Key:
CCRF-CEM = assay: NCI-60 SRB screen: leukemia CCRF-CEM; assay type: cell-based; conditions: Homo sapiens, 48 h
SR = assay: NCI-60 SRB screen: leukemia SR; assay type: cell-based; conditions: Homo sapiens, 48 h
EKVX = assay: NCI-60 SRB screen: non-small cell lung cancer EKVX; assay type: cell-based, human
HOP-62 = assay: NCI-60 SRB screen: non-small cell lung cancer HOP-62; assay type: cell-based, human; conditions: HOP-62
HOP-92 = assay: NCI-60 SRB screen: non-small cell lung cancer HOP-92; assay type: cell-based, human; conditions: HOP-92
NCI-H226 = assay: NCI-60 SRB screen: non-small cell lung cancer NCI-H226; assay type: cell-based, human; conditions: NCI-H226
NCI-H322M = assay: NCI-60 SRB screen: non-small cell lung cancer NCI-H322M; assay type: cell-based, human
COLO 205 = assay: NCI-60 SRB screen: colon cancer COLO 205; assay type: cell-based, human; conditions: COLO 205
HCC-2998 = assay: NCI-60 SRB screen: colon cancer HCC-2998; assay type: cell-based, human; conditions: HCC-2998
HCT-116 = assay: NCI-60 SRB screen: colon cancer HCT-116; assay type: cell-based; conditions: Homo sapiens, 48 h, HCT-116
HCT-15 = assay: NCI-60 SRB screen: colon cancer HCT-15; assay type: cell-based, human; conditions: HCT-15
HT29 = assay: NCI-60 SRB screen: colon cancer HT29; assay type: cell-based; conditions: Homo sapiens, HT29
KM12 = assay: NCI-60 SRB screen: colon cancer KM12; assay type: cell-based, human; conditions: KM12
SW-620 = assay: NCI-60 SRB screen: colon cancer SW-620; assay type: cell-based; conditions: Homo sapiens, 48 h, SW-620
SF-295 = assay: NCI-60 SRB screen: CNS cancer SF-295; assay type: cell-based, human; conditions: SF-295
SNB-19 = assay: NCI-60 SRB screen: CNS cancer SNB-19; assay type: cell-based, human; conditions: SNB-19
U251 = assay: NCI-60 SRB screen: CNS cancer U251; assay type: cell-based; conditions: Homo sapiens, U251
MALME-3M = assay: NCI-60 SRB screen: melanoma MALME-3M; assay type: cell-based, human; conditions: MALME-3M
SK-MEL-2 = assay: NCI-60 SRB screen: melanoma SK-MEL-2; assay type: cell-based, human; conditions: SK-MEL-2
SK-MEL-5 = assay: NCI-60 SRB screen: melanoma SK-MEL-5; assay type: cell-based, human; conditions: SK-MEL-5
UACC-257 = assay: NCI-60 SRB screen: melanoma UACC-257; assay type: cell-based, human; conditions: UACC-257
IGROV1 = assay: NCI-60 SRB screen: ovarian cancer IGROV1; assay type: cell-based, human; conditions: IGROV1
NCI/ADR-RES = assay: NCI-60 SRB screen: ovarian cancer NCI/ADR-RES; assay type: cell-based, human
A498 = assay: NCI-60 SRB screen: renal cancer A498; assay type: cell-based, human; conditions: A498
RXF 393 = assay: NCI-60 SRB screen: renal cancer RXF 393; assay type: cell-based, human; conditions: RXF 393
TK-10 = assay: NCI-60 SRB screen: renal cancer TK-10; assay type: cell-based, human; conditions: TK-10
UO-31 = assay: NCI-60 SRB screen: renal cancer UO-31; assay type: cell-based, human; conditions: UO-31
DU-145 = assay: NCI-60 SRB screen: prostate cancer DU-145; assay type: cell-based, human; conditions: DU-145
MDA-MB-231/ATCC = assay: NCI-60 SRB screen: breast cancer MDA-MB-231/ATCC; assay type: cell-based; conditions: Homo sapiens, 48 h
[1] = system: 60 human tumor cell lines; conditions: single dose 10 µM
Leukemia subpanel = assay: NCI-60 screen, subpanel Leukemia
CNS cancer subpanel = assay: NCI-60 screen, subpanel CNS cancer
NSCL cancer subpanel = assay: NCI-60 screen, subpanel NSCL cancer
Colon Cancer subpanel = assay: NCI-60 screen, subpanel Colon Cancer
Renal Cancer subpanel = assay: NCI-60 screen, subpanel Renal Cancer
Breast cancer subpanel = assay: NCI-60 screen, subpanel Breast cancer
Prostate cancer subpanel = assay: NCI-60 screen, subpanel Prostate cancer
[2] = single dose 10 µM, read-out: Percentage Cell Growth
[3] = five concentrations, SRB, read-out: GI50
[4] = Homo sapiens, five concentrations, 48 h, SRB, read-out: GI50

C=C(C)[C@@H]1CC[C@]2(C(=O)OC)CC[C@]3(C)[C@H](CC[C@@H]4[C@@]5(C)CCC(=NOCCC(=NOCCC#N)NCCC#N)C(C)(C)[C@@H]5CC[C@]43C)[C@@H]12 [Compound 21]
activity at 10 µM (CCRF-CEM; [2]): 7.42%
GI50 (CCRF-CEM; [3]): 11.7 µM
activity at 10 µM (SR; [2]): 1.86%
GI50 (SR; [3]): 2.87 µM
GI50 (EKVX; [4]): 4.77 µM
Percentage Cell Growth (EKVX; single dose 10 µM): 53.13%
Percentage Cell Growth (HOP-62; single dose 10 µM): 32.54%
GI50 (HOP-62; [4]): 12.5 µM
Percentage Cell Growth (HOP-92; single dose 10 µM): −14.95%
GI50 (HOP-92; [4]): 6.9 µM
GI50 (NCI-H226; [4]): 5.43 µM
Percentage Cell Growth (NCI-H226; single dose 10 µM): 2.42%
GI50 (NCI-H322M; [4]): > 50 µM
Percentage Cell Growth (NCI-H322M; single dose 10 µM): 46.12%
Percentage Cell Growth (COLO 205; single dose 10 µM): 17.60%
GI50 (COLO 205; [4]): 9.02 µM
Percentage Cell Growth (HCC-2998; single dose 10 µM): 26.92%
GI50 (HCC-2998; [4]): 13.8 µM
activity at 10 µM (HCT-116; [2]): 4.16%
GI50 (HCT-116; [3]): 2.89 µM
Percentage Cell Growth (HCT-15; single dose 10 µM): 34.28%
GI50 (HCT-15; [4]): 5.77 µM
activity at 10 µM (HT29; HT-29, 48 h, single dose 10 µM, read-out: Percentage Cell Growth): 3.88%
GI50 (HT29; HT-29, five concentrations, 48 h, SRB, read-out: GI50): 6.7 µM
GI50 (KM12; [4]): 9.35 µM
Percentage Cell Growth (KM12; single dose 10 µM): 10.89%
activity at 10 µM (SW-620; [2]): 22%
GI50 (SW-620; [3]): 4.45 µM
GI50 (SF-295; [4]): 21.4 µM
Percentage Cell Growth (SF-295; single dose 10 µM): 36.56%
GI50 (SNB-19; [4]): 12.6 µM
Percentage Cell Growth (SNB-19; single dose 10 µM): 28.93%
activity at 10 µM (U251; U-251, 48 h, single dose 10 µM, read-out: Percentage Cell Growth): -39.7%
GI50 (U251; U-251, five concentrations, 48 h, SRB, read-out: GI50): 4.3 µM
GI50 (MALME-3M; [4]): 11.8 µM
Percentage Cell Growth (MALME-3M; single dose 10 µM): 25.27%
GI50 (SK-MEL-2; [4]): 13.8 µM
Percentage Cell Growth (SK-MEL-2; single dose 10 µM): 36.23%
GI50 (SK-MEL-5; [4]): 3.02 µM
Percentage Cell Growth (SK-MEL-5; single dose 10 µM): −84.68%
GI50 (UACC-257; [4]): 5.35 µM
Percentage Cell Growth (UACC-257; single dose 10 µM): 8.82%
GI50 (IGROV1; Homo sapiens, IGROV-1, five concentrations, 48 h, SRB, read-out: GI50): 14.9 µM
Percentage Cell Growth (IGROV1; single dose 10 µM): 18.78%
GI50 (NCI/ADR-RES; [4]): 13.5 µM
Percentage Cell Growth (NCI/ADR-RES; single dose 10 µM): 17.06%
Percentage Cell Growth (A498; single dose 10 µM): −0.38%
GI50 (A498; [4]): 21.7 µM
GI50 (RXF 393; [4]): 5.64 µM
Percentage Cell Growth (RXF 393; single dose 10 µM): −43.14%
GI50 (TK-10; [4]): 13.8 µM
Percentage Cell Growth (TK-10; single dose 10 µM): 37.88%
GI50 (UO-31; [4]): 15.6 µM
Percentage Cell Growth (UO-31; single dose 10 µM): 19.03%
Percentage Cell Growth (DU-145; single dose 10 µM): 27.53%
GI50 (DU-145; [4]): 13.4 µM
activity at 10 µM (MDA-MB-231/ATCC; MDA-MB-231/ATCC, single dose 10 µM, read-out: Percentage Cell Growth): 5.09%
GI50 (MDA-MB-231/ATCC; MDA-MB-231, MDA-MB-31/ATCC, five concentrations, SRB, read-out: GI50): 10.3 µM
cancer cell lethality, range of percentage growth ([1]; cell lines with negative growth): −0.38% to −84.68%
cases of cancer cell lethality ([1]; number of cell lines): 11
MID b, average sensitivity of all cell line of particular subpanel (Leukemia subpanel): 4.90 µM
Selectivity, ratio MID a: MID b (Leukemia subpanel): 2.09
MID b, average sensitivity of all cell line of particular subpanel (CNS cancer subpanel): 15.32 µM
Selectivity, ratio MID a: MID b (CNS cancer subpanel): 0.67
MID b, average sensitivity of all cell line of particular subpanel (NSCL cancer subpanel): 12.43 µM
Selectivity, ratio MID a: MID b (NSCL cancer subpanel): 0.83
MID b, average sensitivity of all cell line of particular subpanel (Colon Cancer subpanel): 7.42 µM
Selectivity, ratio MID a: MID b (Colon Cancer subpanel): 1.38
MID b, average sensitivity of all cell line of particular subpanel (Renal Cancer subpanel): 11.39 µM
Selectivity, ratio MID a: MID b (Renal Cancer subpanel): 0.89
MID b, average sensitivity of all cell line of particular subpanel (Breast cancer subpanel): 10.16 µM
Selectivity, ratio MID a: MID b (Breast cancer subpanel): 1.00
MID b, average sensitivity of all cell line of particular subpanel (Prostate cancer subpanel): 7.83 µM
Selectivity, ratio MID a: MID b (Prostate cancer subpanel): 1.31
